Calls of active or inactive are those of the source. No cut-off for these calls is given here.

Assay [1] deals with T1, Histamine H4 receptor (Homo sapiens, UniProt Q9H3N8). Kind of assay: Displacement of [3H]histamine from human H4R receptor expressed in HEK293 cells at 10 uM after 1.5 hrs by liquid scintillation counting. Format: cell-based. Background: Displacement assays read how much labelled ligand stays bound in the presence of the test substance.
Assay [2] addresses T2, 5-hydroxytryptamine receptor 3A (Homo sapiens) (UniProt P46098).
T2 sequence (whole entry): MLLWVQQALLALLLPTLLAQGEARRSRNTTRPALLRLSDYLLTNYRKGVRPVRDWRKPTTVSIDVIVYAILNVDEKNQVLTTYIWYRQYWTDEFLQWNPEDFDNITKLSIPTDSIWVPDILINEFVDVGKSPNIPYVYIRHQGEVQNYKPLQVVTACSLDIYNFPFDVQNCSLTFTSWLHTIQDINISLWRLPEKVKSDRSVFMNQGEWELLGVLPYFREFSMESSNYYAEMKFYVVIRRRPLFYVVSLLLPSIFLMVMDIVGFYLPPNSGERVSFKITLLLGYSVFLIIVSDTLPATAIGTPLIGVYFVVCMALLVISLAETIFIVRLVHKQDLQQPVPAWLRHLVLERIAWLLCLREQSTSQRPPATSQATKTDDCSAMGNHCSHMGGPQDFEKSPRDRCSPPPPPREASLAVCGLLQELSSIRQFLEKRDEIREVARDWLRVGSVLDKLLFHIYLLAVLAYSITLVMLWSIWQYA
Kind of assay: Displacement of [3H]granisetron from human 5-HT3AR expressed in HEK293 cells after 24 hrs by liquid scintillation counting. Format: cell-based.

The target in assay [3] is T1, Histamine H4 receptor. Kind of assay: Binding affinity to H4R receptor.
Assay [4] has as its target T2, 5-hydroxytryptamine receptor 3A (Homo sapiens). Kind of assay: Inhibition of 5-HT3AR at 10 uM.

T1 sequence (Q9H3N8 whole entry): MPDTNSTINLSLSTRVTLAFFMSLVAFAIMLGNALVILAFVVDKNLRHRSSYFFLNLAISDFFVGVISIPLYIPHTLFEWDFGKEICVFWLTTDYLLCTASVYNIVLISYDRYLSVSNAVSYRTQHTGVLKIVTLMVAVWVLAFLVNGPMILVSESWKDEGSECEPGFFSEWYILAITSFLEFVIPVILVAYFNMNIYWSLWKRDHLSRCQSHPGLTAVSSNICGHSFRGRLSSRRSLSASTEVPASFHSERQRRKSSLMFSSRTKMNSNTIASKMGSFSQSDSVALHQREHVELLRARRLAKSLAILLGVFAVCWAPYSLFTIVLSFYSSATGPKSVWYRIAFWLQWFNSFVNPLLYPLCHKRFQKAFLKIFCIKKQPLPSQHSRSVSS

As to `Nc1ccc2cc3ccccc3nc2c1`, on Histamine H4 receptor [1], the pKi entry was “inactive”.

`c1cncc(Cc2c[nH]cn2)c1`: the pKi entry in assay [2] is “inactive”.

For `N=C(N)NCCCc1ccccc1`, the pKi entry on Histamine H4 receptor [1] was “inactive”.

As for `Nc1nc2c(c(N3CCNCC3)n1)CCC1=C2[C@@H]2CCCC[C@@H]2O1`, at Histamine H4 receptor [3], the Ki (commonly a measure of affinity in units of concentration, obtained from inhibition or displacement) is 79.4 nM.

With `Clc1ccc(C2CCNC2)cc1` (stereo not drawn), the pKi result at Histamine H4 receptor [1] is “inactive”.

As to `c1ccc(CNCCc2c[nH]cn2)cc1`, the pKi entry in assay [2] is “inactive”.

With `Nc1nc2c(c(N3CCNCC3)n1)CCCc1ccccc1-2`, the inhibition (as a rule, how much of the control response was suppressed) in assay [4] is 98%.

Turning to `CN1CCN(c2cc(-c3ccccc3)ncn2)CC1`, the pKi result in assay [2] is “inactive”.

These data come from ChEMBL document CHEMBL1821608, “Fragment library screening reveals remarkable similarities between the G protein-coupled receptor histamine H₄ and the ion channel serotonin 5-HT₃A” (Bioorg Med Chem Lett, 2011).
